The values that follow are results of earlier work, collected in patent publication US6699701B1, “Method and device for sanitation using bacteriophages” (priority 2000, dated 2004).

SMILES strings stand for the structures.

This data set deals with bacterial counts. The note with it: fresh-cut fruits, most effective chemical sanitizer.

For the molecule `OO` [hydrogen peroxide], the “maximum reduction rate in bacterial counts” value is on record as at most 1.3 logs.
